The compounds below were run against T1, human capsaicin receptor (Homo sapiens, UniProt Q8NER1) (assay: Calcium mobilization assay (Example 6)). Details: concentration required to provide a 50% decrease in the fluorescence response of cells exposed to one IC50 of capsaicin.
T1 construct: A cDNA encoding full length human capsaicin receptor recited in U.S. Pat. No. 6,482,611 was subcloned in the plasmid pBK-CMV; expressed in transfected cells
Type: cell-based
Outline: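 HEK293 clonal lines stably expressing full-length human capsaicin receptor, Fluo-3 AM loaded in KRH buffer pH 7.4. Compounds (final 1-5 μM) preincubated 0.5-6 h at room temperature in the dark, then capsaicin added at its predetermined IC50 concentration. FLIPR calcium signal at 30-60 s; IC50 = antagonist concentration giving 50% decrease.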

T1 sequence (Q8NER1 whole entry): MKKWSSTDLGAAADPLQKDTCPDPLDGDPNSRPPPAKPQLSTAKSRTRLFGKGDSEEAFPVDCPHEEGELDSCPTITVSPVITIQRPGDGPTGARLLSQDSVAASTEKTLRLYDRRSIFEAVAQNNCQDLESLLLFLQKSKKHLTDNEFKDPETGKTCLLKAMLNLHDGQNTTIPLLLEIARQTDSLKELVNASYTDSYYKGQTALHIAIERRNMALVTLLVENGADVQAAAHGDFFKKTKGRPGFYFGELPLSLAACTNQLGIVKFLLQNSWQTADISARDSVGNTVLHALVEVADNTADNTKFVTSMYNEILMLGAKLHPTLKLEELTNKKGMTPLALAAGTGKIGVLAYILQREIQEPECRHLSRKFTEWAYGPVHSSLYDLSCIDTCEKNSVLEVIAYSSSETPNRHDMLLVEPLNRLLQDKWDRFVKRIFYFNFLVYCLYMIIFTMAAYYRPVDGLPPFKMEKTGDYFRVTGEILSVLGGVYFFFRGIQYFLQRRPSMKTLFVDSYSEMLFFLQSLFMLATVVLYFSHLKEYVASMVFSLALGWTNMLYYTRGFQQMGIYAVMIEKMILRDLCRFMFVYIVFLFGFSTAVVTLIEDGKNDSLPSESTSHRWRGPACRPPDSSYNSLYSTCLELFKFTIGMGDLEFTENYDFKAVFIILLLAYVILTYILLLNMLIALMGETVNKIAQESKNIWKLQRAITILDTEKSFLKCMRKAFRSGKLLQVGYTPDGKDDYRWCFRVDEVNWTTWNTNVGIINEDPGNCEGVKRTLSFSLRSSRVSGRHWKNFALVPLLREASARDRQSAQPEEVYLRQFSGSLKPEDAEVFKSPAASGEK

| IC50 [µM] | Structure (SMILES) |
| --- | --- |
| ≤ 1 | CCc1ccc(Nc2ccnc3nc(-c4ncccc4C(F)(F)F)ccc23)nc1 [Compound 143, N-(5-ethylpyridin-2-yl)-7-[3-(trifluoromethyl)pyridin-2-yl]-1,8-naphthyridin-4-amine] |
| ≤ 1 | FC(F)(F)c1cccnc1-c1ccc2c(Nc3ccc(Cl)cn3)cc(C3CCC3)nc2n1 [Compound 101, N-(5-chloropyridin-2-yl)-2-cyclobutyl-7-[3-(trifluoromethyl)pyridin-2-yl]-1,8-naphthyridin-4-amine] |
| ≤ 1 | FC(F)(F)c1ccc(Nc2cc(CN3CCCCC3)nc3nc(-c4ncccc4C(F)(F)F)ccc23)nc1 [Compound 92, 2-(piperidin-1-ylmethyl)-7-[3-(trifluoromethyl)pyridin-2-yl]-N-[5-(trifluoromethyl)pyridin-2-yl]-1,8-naphthyridin-4-amine] |
| ≤ 1 | CC(C)CNc1cc(Nc2ccc(C(F)(F)F)cn2)c2ccc(-c3ncccc3C(F)(F)F)nc2n1 [Compound 130, N~2~-isobutyl-7-[3-(trifluoromethyl)pyridin-2-yl]-N~4~-[5-(trifluoromethyl)pyridin-2-yl]-1,8-naphthyridine-2,4-diamine] |
| ≤ 1 | Cc1cccnc1-c1ccc2c(Nc3cnc(C(F)(F)F)cn3)ccnc2n1 [Compound 144, 7-(3-methylpyridin-2-yl)-N-[5-(trifluoromethyl)pyrazin-2-yl]-1,8-naphthyridin-4-amine] |
| ≤ 1 | FC(F)(F)c1ccc(Nc2ccnc3cc(-c4ncccc4C(F)(F)F)ccc23)nc1 [Compound 109, 7-[3-(trifluoromethyl)pyridin-2-yl]-N-[5-(trifluoromethyl)pyridin-2-yl]quinolin-4-amine] |
| ≤ 1 | OCc1cc(Nc2ccc(C(F)(F)F)cn2)c2ccc(-c3ncccc3C(F)(F)F)nc2n1 [Compound 88, (7-[3-(trifluoromethyl)pyridin-2-yl]-4-{[5-(trifluoromethyl)pyridin-2-yl]amino}-1,8-naphthyridin-2-yl)methanol] |
| ≤ 1 | C[C@@H]1CN(Cc2cc(Nc3ccc(C(F)(F)F)cn3)c3ccc(-c4ncccc4C(F)(F)F)nc3n2)C[C@H](C)O1 [Compound 90, rel-2-{[(2R,6S)-2,6-dimethylmorpholin-4-yl]methyl}-7-[3-(trifluoromethyl)pyridin-2-yl]-N-[5(trifluoromethyl)pyridin-2-yl]-1,8-naphthyridin-4-amine] |
| ≤ 1 | Oc1cc(Nc2ccc(C(F)(F)F)cn2)c2ccc(-c3ncccc3C(F)(F)F)nc2n1 [Compound 97, 7-[3-(trifluoromethyl)pyridin-2-yl]-4-{[5-(trifluoromethyl)pyridin-2-yl]amino}-1,8-naphthyridin-2-ol] |
| ≤ 1 | CCc1cc(Nc2ccc(C(C)(C)O)cn2)c2ccc(-c3ncccc3C(F)(F)F)nc2n1 [Compound 112, 2-[6-({2-ethyl-7-[3-(trifluoromethyl)pyridin-2-yl]-1,8-naphthyridin-4-yl}amino)pyridin-3-yl]propan-2-ol] |
| ≤ 1 | FC(F)(F)c1ccc(Nc2cc(N3CCOCC3)nc3nc(-c4ncccc4C(F)(F)F)ccc23)nc1 [Compound 129, 2-morpholin-4-yl-7-[3-(trifluoromethyl)pyridin-2-yl]-N-[5-(trifluoromethyl)pyridin-2-yl]-1,8-naphthyridin-4-amine] |
| ≤ 1 | CC(C)CN(CC(=O)O)Cc1cc(Nc2ccc(C(F)(F)F)cc2)c2ccc(-c3ncccc3C(F)(F)F)nc2n1 [Compound 81, N-isobutyl-N-({4-{[4-(trifluoromethyl)phenyl]amino}-7-[3-(trifluoromethyl)pyridin-2-yl]-1,8-naphthyridin-2-yl}methyl)glycine] |
| ≤ 1 | CCCc1cc(Nc2ccc(C(C)=O)cn2)c2ccc(-c3ncccc3C(F)(F)F)nc2n1 [Compound 115, 1-[6-({2-propyl-7-[3-(trifluoromethyl)pyridin-2-yl]-1,8-naphthyridin-4-yl}amino)pyridin-3-yl]ethanone] |
| ≤ 1 | CC(=O)c1ccc(Nc2ccnc3nc(-c4ncccc4C(F)(F)F)ccc23)nc1 [Compound 141, 1-[6-({7-[3-(trifluoromethyl)pyridin-2-yl]-1,8-naphthyridin-4-yl}amino)pyridin-3-yl]ethanone] |
| ≤ 1 | COC(C)c1cc(Nc2ccc(C(C)(C)O)cn2)c2ccc(-c3ncccc3C(F)(F)F)nc2n1 (stereo not drawn) [Compound 121, 2-[6-({2-(1-methoxyethyl)-7-[3-(trifluoromethyl)pyridin-2-yl]-1,8-naphthyridin-4-yl}amino)pyridin-3-yl]propan-2-ol] |
| ≤ 1 | CCCc1cc(Nc2ccc(S(C)(=O)=O)cn2)c2ccc(-c3ncccc3C(F)(F)F)nc2n1 [Compound 123, N-[5-(methylsulfonyl)pyridin-2-yl]-2-propyl-7-[3-(trifluoromethyl)pyridin-2-yl]-1,8-naphthyridin-4-amine] |

Continued, compound first:

| Structure (SMILES) | IC50 [µM] |
| --- | --- |
| CC(C)COc1cc(Nc2ccc(C(F)(F)F)cc2)c2ccc(-c3ncccc3C(F)(F)F)cc2n1 [Compound 18, 2-isobutoxy-N-[4-(trifluoromethyl)phenyl]-7-[3-(trifluoromethyl)pyridin-2-yl]quinolin-4-amine] | ≤ 1 |
| CC(C)CN(Cc1cc(Nc2ccc(C(F)(F)F)cc2)c2ccc(-c3ncccc3C(F)(F)F)nc2n1)S(C)(=O)=O [Compound 80, N-isobutyl-N-({4-{[4-(trifluoromethyl)phenyl]amino}-7-[3-(trifluoromethyl)pyridin-2-yl]-1,8-naphthyridin-2-yl}methyl)methanesulfonamide] | ≤ 1 |
| CC(C)(C)c1ccc(Nc2cc(N3CCOCC3)nc3cc(-c4ncccc4C(F)(F)F)ccc23)cc1 [Compound 23, N-(4-tert-butylphenyl)-2-morpholin-4-yl-7-[3-(trifluoromethyl)pyridin-2-yl]quinolin-4-amine] | ≤ 1 |
| CCOc1cc(Nc2ccc(C(C)(C)C)cc2)c2ccc(-c3ncccc3C(F)(F)F)cc2n1 [Compound 30, N-(4-tert-butylphenyl)-2-ethoxy-7-[3-(trifluoromethyl)pyridin-2-yl]quinolin-4-amine] | ≤ 1 |
| CC(C)CN(C)Cc1cc(Nc2ccc(C(F)(F)F)cc2)c2ccc(-c3ncccc3C(F)(F)F)nc2n1 [Compound 60, 2-{[isobutyl(methyl)amino]methyl}-N-[4-(trifluoromethyl)phenyl]-7-[3-(trifluoromethyl)pyridin-2-yl]-1,8-naphthyridin-4-amine] | ≤ 1 |
| Cc1cc(Nc2ccc(C(F)(F)F)cn2)c2ccc(-c3ncccc3C(F)(F)F)nc2n1 [Compound 39, 2-methyl-7-[3-(trifluoromethyl)pyridin-2-yl]-N-[5-(trifluoromethyl)pyridin-2-yl]-1,8-naphthyridin-4-amine] | ≤ 1 |
| CC(C)COCc1cc(Nc2ccc(C#N)cn2)c2ccc(-c3ncccc3C(F)(F)F)nc2n1 [Compound 87, 6-({2-(isobutoxymethyl)-7-[3-(trifluoromethyl)pyridin-2-yl]-1,8-naphthyridin-4-yl}amino)nicotinonitrile] | ≤ 1 |
| CCOc1cc(Nc2ccc(S(=O)(=O)C(F)(F)F)cc2)c2ccc(-c3ncccc3C(F)(F)F)nc2n1 [Compound 46, 2-ethoxy-7-[3-(trifluoromethyl)pyridin-2-yl]-N-{4-[(trifluoromethyl)sulfonyl]phenyl}-1,8-naphthyridin-4-amine] | ≤ 1 |
| COc1cc(Nc2ccc(C(C)(C)C)cc2)c2ccc(-c3ncccc3C(F)(F)F)nc2n1 [Compound 47, N-(4-tert-butylphenyl)-2-methoxy-7-[3-(trifluoromethyl)pyridin-2-yl]-1,8-naphthyridin-4-amine] | ≤ 1 |
| CC(=O)c1ccc(Nc2cc(COCC(C)C)nc3nc(-c4ncccc4Cl)ccc23)cc1 [Compound 63, 1-(4-{[7-(3-chloropyridin-2-yl)-2-(isobutoxymethyl)-1,8-naphthyridin-4-yl]amino}phenyl)ethanone] | ≤ 1 |
| COCc1cc(Nc2ccc(C(C)(C)O)cc2)c2ccc(-c3ncccc3Cl)nc2n1 [Compound 53, 2-(4-{[7-(3-chloropyridin-2-yl)-2-(methoxymethyl)-1,8-naphthyridin-4-yl]amino}phenyl)propan-2-ol] | ≤ 1 |
| CCCOc1cc(Nc2ccc(C(C)(C)C)cc2)c2ccc(-c3ncccc3C(F)(F)F)cc2n1 [Compound 33, N-(4-tert-butylphenyl)-2-propoxy-7-[3-(trifluoromethyl)pyridin-2-yl]quinolin-4-amine] | ≤ 1 |
| CC(C)(C)c1ccc(Nc2cc(O)nc3cc(-c4ncccc4C(F)(F)F)ccc23)cc1 [Compound 21, 4-[(4-tert-butylphenyl)amino]-7-[3-(trifluoromethyl)pyridin-2-yl]quinolin-2-ol] | ≤ 1 |
| CC(=O)c1ccc(Nc2cc(COCC(C)C)nc3nc(-c4ncccc4C(F)(F)F)ccc23)cc1 [Compound 56, 1-[4-({2-(isobutoxymethyl)-7-[3-(trifluoromethyl)pyridin-2-yl]-1,8-naphthyridin-4-yl}amino)phenyl]ethanone] | ≤ 1 |
| CCOc1cc(Nc2ccc(C(F)(F)F)cn2)c2ccc(-c3ncccc3C(F)(F)F)nc2n1 [Compound 45, 2-ethoxy-7-[3-(trifluoromethyl)pyridin-2-yl]-N-[5-(trifluoromethyl)pyridin-2-yl]-1,8-naphthyridin-4-amine] | ≤ 1 |
| Cc1cc(Nc2ccc(C(F)(F)F)cc2)c2ccc(-c3ncccc3C(F)(F)F)nc2n1 [Compound 48, 2-methyl-N-[4-(trifluoromethyl)phenyl]-7-[3-(trifluoromethyl)pyridin-2-yl]-1,8-naphthyridin-4-amine] | ≤ 1 |
| CC(C)(C)c1ccc(Nc2cc(N3CCCCC3)nc3cc(-c4ncccc4C(F)(F)F)ccc23)cc1 [Compound 26, N-(4-tert-butylphenyl)-2-piperidin-1-yl-7-[3-(trifluoromethyl)pyridin-2-yl]quinolin-4-amine] | ≤ 1 |

Reference: patent publication US7488740B2, “Substituted quinolin-4-ylamine analogues” (Neurogen Corporation, priority 2003, dated 2009)
